In assay [1] the target is T1, Kinesin-like protein KIF11 (Homo sapiens, UniProt P52732).
T1 sequence (P52732 whole entry): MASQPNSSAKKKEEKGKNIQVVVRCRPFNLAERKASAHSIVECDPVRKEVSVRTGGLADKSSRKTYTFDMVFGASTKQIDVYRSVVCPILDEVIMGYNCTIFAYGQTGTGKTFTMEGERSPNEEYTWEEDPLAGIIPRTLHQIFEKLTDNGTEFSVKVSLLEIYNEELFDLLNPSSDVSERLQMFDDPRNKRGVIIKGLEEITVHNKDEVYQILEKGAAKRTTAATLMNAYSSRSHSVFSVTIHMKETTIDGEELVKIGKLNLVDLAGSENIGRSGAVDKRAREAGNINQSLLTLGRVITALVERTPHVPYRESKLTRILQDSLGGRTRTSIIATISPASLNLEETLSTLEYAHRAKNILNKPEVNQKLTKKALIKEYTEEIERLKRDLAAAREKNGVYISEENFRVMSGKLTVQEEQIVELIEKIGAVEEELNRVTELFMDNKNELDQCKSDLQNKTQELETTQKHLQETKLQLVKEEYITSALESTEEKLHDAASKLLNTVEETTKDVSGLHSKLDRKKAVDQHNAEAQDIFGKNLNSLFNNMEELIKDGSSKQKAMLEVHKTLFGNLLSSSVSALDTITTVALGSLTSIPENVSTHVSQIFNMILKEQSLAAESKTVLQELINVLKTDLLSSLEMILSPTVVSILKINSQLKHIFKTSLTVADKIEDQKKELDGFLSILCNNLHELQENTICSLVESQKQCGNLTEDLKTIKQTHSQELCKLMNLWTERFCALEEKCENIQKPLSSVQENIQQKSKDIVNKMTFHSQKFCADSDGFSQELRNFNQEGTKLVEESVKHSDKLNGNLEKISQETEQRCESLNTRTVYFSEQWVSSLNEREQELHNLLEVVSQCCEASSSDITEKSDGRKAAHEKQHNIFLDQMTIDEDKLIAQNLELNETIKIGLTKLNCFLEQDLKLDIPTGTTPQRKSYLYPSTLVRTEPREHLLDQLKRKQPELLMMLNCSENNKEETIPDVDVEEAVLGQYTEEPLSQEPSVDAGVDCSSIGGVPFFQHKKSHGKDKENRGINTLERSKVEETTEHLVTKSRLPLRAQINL
The experiment in a line: Inhibition of human kinesin spindle protein by endpoint assay.

Assay [2] deals with T2, Kinesin-like protein KIF3B (Homo sapiens, UniProt O15066).
T2 sequence (O15066 whole entry): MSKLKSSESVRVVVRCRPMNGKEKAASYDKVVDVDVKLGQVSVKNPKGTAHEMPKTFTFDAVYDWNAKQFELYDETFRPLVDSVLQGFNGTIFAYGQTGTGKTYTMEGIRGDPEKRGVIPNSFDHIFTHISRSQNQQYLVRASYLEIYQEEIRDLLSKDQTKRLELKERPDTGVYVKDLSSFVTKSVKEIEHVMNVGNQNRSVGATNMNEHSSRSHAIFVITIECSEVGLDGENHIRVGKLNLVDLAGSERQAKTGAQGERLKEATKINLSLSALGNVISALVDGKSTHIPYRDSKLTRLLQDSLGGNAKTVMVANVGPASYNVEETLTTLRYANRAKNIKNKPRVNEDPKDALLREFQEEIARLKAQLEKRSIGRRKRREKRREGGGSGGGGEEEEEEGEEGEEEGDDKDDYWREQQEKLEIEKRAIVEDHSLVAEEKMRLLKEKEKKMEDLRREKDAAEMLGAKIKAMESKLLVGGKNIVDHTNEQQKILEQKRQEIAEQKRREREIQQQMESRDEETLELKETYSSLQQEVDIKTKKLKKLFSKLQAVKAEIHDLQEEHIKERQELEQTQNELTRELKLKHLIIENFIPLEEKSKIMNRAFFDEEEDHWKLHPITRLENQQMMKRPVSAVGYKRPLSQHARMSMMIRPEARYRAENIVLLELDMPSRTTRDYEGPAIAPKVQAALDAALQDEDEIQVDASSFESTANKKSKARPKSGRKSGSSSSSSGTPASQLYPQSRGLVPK
The experiment in a line: Inhibition of Kif3B.

In assay [3] the target is T3, Kinesin heavy chain isoform 5A (Homo sapiens, UniProt Q12840).
T3 sequence (Q12840 whole entry): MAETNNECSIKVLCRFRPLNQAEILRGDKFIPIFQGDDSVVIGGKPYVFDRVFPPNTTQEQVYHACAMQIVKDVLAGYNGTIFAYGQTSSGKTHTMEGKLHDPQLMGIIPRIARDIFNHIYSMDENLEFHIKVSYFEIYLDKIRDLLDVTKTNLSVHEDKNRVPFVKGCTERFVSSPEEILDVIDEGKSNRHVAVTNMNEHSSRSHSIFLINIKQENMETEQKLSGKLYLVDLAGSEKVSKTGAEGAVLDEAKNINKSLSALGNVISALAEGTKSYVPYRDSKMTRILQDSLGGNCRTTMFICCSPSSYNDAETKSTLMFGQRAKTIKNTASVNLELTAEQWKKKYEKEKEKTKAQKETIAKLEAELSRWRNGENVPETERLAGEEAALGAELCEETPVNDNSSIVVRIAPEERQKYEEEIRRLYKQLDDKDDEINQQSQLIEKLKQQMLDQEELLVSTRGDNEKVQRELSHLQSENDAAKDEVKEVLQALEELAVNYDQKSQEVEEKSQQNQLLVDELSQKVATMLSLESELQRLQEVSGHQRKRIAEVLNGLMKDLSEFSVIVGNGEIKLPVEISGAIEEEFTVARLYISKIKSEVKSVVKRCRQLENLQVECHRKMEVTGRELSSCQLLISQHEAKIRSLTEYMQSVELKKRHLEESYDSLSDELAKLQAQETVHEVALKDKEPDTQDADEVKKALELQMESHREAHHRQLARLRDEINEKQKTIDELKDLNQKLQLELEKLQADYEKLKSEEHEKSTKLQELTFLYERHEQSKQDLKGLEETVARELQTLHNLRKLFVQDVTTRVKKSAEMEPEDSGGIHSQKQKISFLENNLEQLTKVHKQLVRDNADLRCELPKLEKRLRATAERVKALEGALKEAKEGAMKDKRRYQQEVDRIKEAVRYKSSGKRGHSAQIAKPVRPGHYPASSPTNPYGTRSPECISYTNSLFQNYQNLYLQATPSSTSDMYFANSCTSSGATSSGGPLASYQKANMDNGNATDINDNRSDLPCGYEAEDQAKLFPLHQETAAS
Briefly: Inhibition of nKHC.

A word on the IC50: it is the concentration at which inhibition is half-maximal. High values mean weaker potency in that assay, low ones greater potency in that assay. As to `NC(=O)c1cc2c(cc1F)nc(Nc1ccc(S(N)(=O)=O)cc1)n2Cc1ccccc1C(F)(F)F`, in assay [1], the IC50 is > 20 µM.

For `NS(=O)(=O)c1ccc(Nc2nc3cc(C(=O)O)ccc3n2Cc2ccccc2C(F)(F)F)cc1`, the IC50 in assay [1] was > 20 µM; in assay [2] it was > 50 µM; in assay [3] it was > 50 µM.

With `CN(C)C(=O)c1ccc2c(c1)nc(Nc1ccc(S(N)(=O)=O)cc1)n2Cc1ccccc1C(F)(F)F`, the concentration for half-maximal inhibition (IC50) was 16.3 µM in assay [1], > 50 µM in assay [2] and > 50 µM in assay [3].

Regarding `COc1ccc(Nc2nc3cc(C(=O)Nc4ccccc4OC)ccc3n2Cc2ccccc2C(F)(F)F)cc1`, the IC50 is 6 µM in assay [1], > 50 µM in assay [2] and > 50 µM in assay [3].

For the molecule `COc1ccc(Nc2nc3cc(C(=O)O)ccc3n2Cc2ccccc2C(F)(F)F)cc1F`, the IC50 is 2.3 µM in assay [1], > 50 µM in assay [2] and > 50 µM in assay [3].

Consider `NC1CCN(c2nc3cc(C(=O)O)ccc3n2Cc2ccccc2C(F)(F)F)C1` (stereo not drawn), for which the results for the IC50 in assay [1], in assay [2] and in assay [3] were > 20 µM, > 50 µM and > 50 µM, respectively.

For the molecule `NC(=O)c1ccc2c(c1)nc(Nc1ccc(S(N)(=O)=O)cc1)n2Cc1ccccn1`, the IC50 in assay [1] is > 20 µM; in assay [2], > 50 µM; in assay [3], > 50 µM.

`COC(=O)c1ccc2c(c1)nc(Nc1ccc(OC)cc1)n2Cc1ccccc1C(F)(F)F`: the IC50 in assay [1] was 13.4 µM; in assay [2], > 50 µM; in assay [3] it was > 50 µM.

Take `NC(=O)c1ccc2nc(Nc3ccc(S(N)(=O)=O)cc3)n(Cc3ccccc3C(F)(F)F)c2c1`: in assay [1], the IC50 was > 20 µM.

In the case of `COC(=O)c1ccc2c(c1)nc(Nc1ccc(S(N)(=O)=O)cc1)n2Cc1ccccc1C(F)(F)F`, the IC50 in assay [1] was 2.2 µM; in assay [2], > 50 µM; in assay [3], > 50 µM.

On to `COc1ccc(Nc2nc3cc(C(=O)O)ccc3n2Cc2ccccc2C(F)(F)F)cc1`, for which the IC50 in assay [1] is > 20 µM; in assay [2] it was > 50 µM; in assay [3], > 50 µM.

Turning to `NC(=O)c1ccc2c(c1)nc(Nc1ccc(S(N)(=O)=O)cc1)n2C1(c2ccccc2)CC1`, the IC50 in assay [1] was > 20 µM; in assay [2] it was > 50 µM; in assay [3], > 50 µM.

Take `CSc1ccc(Cc2nc3cc(C(=O)O)ccc3n2Cc2ccccc2C(F)(F)F)cc1`: the IC50 in assay [1] is > 20 µM.

Take `CS(=O)(=O)c1ccc(CNc2nc3cc(C(=O)O)ccc3n2Cc2ccccc2C(F)(F)F)cc1`: the IC50 in assay [1] is > 20 µM; in assay [2], > 50 µM; in assay [3], > 50 µM.

In the case of `NS(=O)(=O)c1ccc(CNc2nc3cc(C(=O)O)ccc3n2Cc2ccccc2C(F)(F)F)cc1`, the half-inhibitory concentration (IC50) is > 20 µM in assay [1], > 50 µM in assay [2] and > 50 µM in assay [3].

In the case of `CSc1ccc(Nc2nc3cc(C(=O)O)ccc3n2Cc2ccccc2C(F)(F)F)cc1`, the IC50 in assay [1] was 1.4 µM; in assay [2] it was > 50 µM; in assay [3], > 50 µM.

Consider `CC(c1ccccc1C(F)(F)F)n1c(Nc2ccc(S(N)(=O)=O)cc2)nc2cc(C(N)=O)ccc21` (stereo not drawn), for which the figures for the IC50 in assay [1], in assay [2] and in assay [3] were > 20 µM, > 50 µM and > 50 µM, respectively.

For the molecule `Cc1ccc(CNc2nc3cc(C(=O)O)ccc3n2Cc2ccccc2C(F)(F)F)cc1`, the IC50 in assay [1] is > 20 µM; in assay [2], > 50 µM; in assay [3] it was > 50 µM.

`COc1ccc(Cc2nc3cc(C(=O)O)ccc3n2Cc2ccccc2C(F)(F)F)cc1`: the IC50 in assay [1] was > 20 µM.

Take `CNC(=O)c1ccc2c(c1)nc(Nc1ccc(OC)cc1)n2Cc1ccccc1C(F)(F)F`: the IC50 was 5.2 µM in assay [1], > 50 µM in assay [2] and > 50 µM in assay [3].

For `NC(=O)c1ccc2c(c1)nc(Nc1ccc(S(N)(=O)=O)cc1)n2Cc1csc2ccc(Cl)cc12`, the figures for the IC50 in assay [1], in assay [2] and in assay [3] were 19 µM, > 50 µM and > 50 µM, respectively.

Consider `COc1cccc(Cn2c(Nc3ccc(S(N)(=O)=O)cc3)nc3cc(C(N)=O)ccc32)c1OC`, for which the results for the IC50 in assay [1], in assay [2] and in assay [3] were 5 µM, > 50 µM and > 50 µM, respectively.

Consider `COc1ccccc1Cn1c(Nc2ccc(S(N)(=O)=O)cc2)nc2cc(C(N)=O)ccc21`, for which the figures for the IC50 in assay [1], in assay [2] and in assay [3] were 20 µM, > 50 µM and > 50 µM, respectively.

As to `NS(=O)(=O)c1ccc(Nc2nc3cc(C(=O)N4CCCC4)ccc3n2Cc2ccccc2C(F)(F)F)cc1`, the IC50 in assay [1] is > 20 µM; in assay [2], > 50 µM; in assay [3], > 50 µM.

As to `COc1ccccc1NC(=O)c1ccc2c(c1)nc(Nc1ccc(S(N)(=O)=O)cc1)n2Cc1ccccc1C(F)(F)F`, the IC50 was 2.4 µM in assay [1], > 50 µM in assay [2] and > 50 µM in assay [3].

As to `NC(=O)c1cc2nc(Nc3ccc(S(N)(=O)=O)cc3)n(Cc3ccccc3C(F)(F)F)c2cc1F`, in assay [1], inhibition was half-maximal at 7.9 µM (IC50). This lies in the single-digit micromolar range.

With `O=C(O)c1ccc2c(c1)nc(NCCN1CCOCC1)n2Cc1ccccc1C(F)(F)F`, the IC50 in assay [1] was > 20 µM; in assay [2], > 50 µM; in assay [3], > 50 µM.

For the molecule `COC(=O)c1ccc2c(c1)nc(Nc1ccc(SC)cc1)n2Cc1ccccc1C(F)(F)F`, the IC50 in assay [1] is 33.4 µM; in assay [2], > 50 µM; in assay [3] it was > 50 µM.

Consider `CNC(=O)c1ccc2c(c1)nc(Nc1ccc(S(N)(=O)=O)cc1)n2Cc1ccccc1C(F)(F)F`, for which the IC50 was 9.2 µM in assay [1], > 50 µM in assay [2] and > 50 µM in assay [3].

`NC(=O)c1ccc2c(c1)nc(Nc1ccc(S(N)(=O)=O)cc1)n2Cc1nc2ccccc2s1`: the IC50 in assay [1] is > 20 µM; in assay [2] it was > 50 µM; in assay [3], > 50 µM.

Take `COc1ccc(CNc2nc3cc(C(=O)O)ccc3n2Cc2ccccc2C(F)(F)F)cc1`: the IC50 in assay [1] is > 20 µM; in assay [2], > 50 µM; in assay [3] it was > 50 µM.
